These results are taken from patent US20210363233A1, “TREATMENT OF A DISEASE OF THE GASTROINTESTINAL TRACT WITH AN IL-12/IL-23 INHIBITOR” (Progenity, Inc., priority 2018, published 2021).

Each structure is given as a SMILES string. Counter-ions that a name gives are not always drawn. Like-named read-outs stand apart in the source and are kept apart here.

One may read the Cmax as the highest concentration seen after dosing. The AUC(0-t) is the area under the concentration-time curve up to a stated or last time point. Higher therefore signals high exposure.

Data set [1] is described as follows: Pharmacokinetic study of oral vs intra-cecal administration of tacrolimus (Example 13). The format is in vivo, Yorkshire-Cross farm swine. To be noted: female, Yorkshire-Cross. From the text: (§1) No further randomization procedure was employed.
Data set [2] in a line: Tissue, plasma and GI content pharmacokinetics of tacrolimus, oral vs intra-cecal ingestible device delivery (Example 10). The format is in vivo, Yorkshire-Cross farm swine. To be noted: female, Yorkshire-Cross, pig. The procedure:
The primary objective of this study was to compare the tissue, plasma, rectal sample, and GI content pharmacokinetics of tacrolimus through oral versus intra-cecal ingestible device delivery in normal Yorkshire-Cross farm swine.
as §1
Animals in Group 1 received an ingestible device containing 0.8 mL of vehicle solution (80% alcohol, 20% HCO-60). Animals in Group 2 received orally […] liquid formulation of tacrolimus at 4 mg/0.8 mL per animal (Prograf: 5 mg/mL). Animals in Group 3 received intra-cecally an ingestible device containing tacrolimus at 1 mg in 0.8 mL per ingestible device. Animals in Group 4 received intra-cecally an ingestible device containing tacrolimus at 2 mg in 0.8 mL per ingestible device. Animals in Group 5 received intra-cecally an ingestible device containing tacrolimus at 4 mg in 0.8 mL per ingestible device. To control for potential confounding effects of the surgery, all groups fast on Day −11 at least 24 hr before being subjected to anesthesia followed by surgical placements of a cecal port by a veterinary surgeon at Day −10. All animals were fasted for at least 12 hr prior to dosing on Day 1. Animals were dosed via either intra-cecal dosing (IC) or oral dosing (PO) at Day 1 (between […].). […]
Approximately 200˜400 mg of rectal content were collected, if available, with a fecal swab (Copan Diagnostics Nylon Flocked Dry Swabs, 502CS01). The fecal swab was pre-weighed and weighed after collection in the collection tube (Sterile Tube and Cap No Media, PFPM913S), and the sample weight was recorded. […]
For tissue necropsy, small intestine fluid and cecal fluid were collected separately from all the animals into two separate square plastic bottles, and stored at −20° C. The length and diameter of the cecum and the colon was measured from one animal in each group and recorded for reference. […] All samples were weighed, and the tissue sample weights were recorded. […] Around 3 grams of the total punched sample were collected into a pre-weighed 15-mL conical tube, and the tissue weight was recorded. […]

In data set [3] the test system is cytokines involved in the JAK/STAT signaling pathway. Conditions: PO or IC administration; 1 h and 3 h post-treatment.

In the case of `C=CC[C@@H]1/C=C(\C)C[C@H](C)C[C@H](OC)[C@H]2O[C@@](O)(C(=O)C(=O)N3CCCC[C@H]3C(=O)O[C@H](/C(C)=C/[C@@H]3CC[C@@H](O)[C@H](OC)C3)[C@H](C)[C@@H](O)CC1=O)[C@H](C)C[C@@H]2OC` [tacrolimus], the maximum concentration (Cmax) in data set [1] (pig, blood, Route PO, Dosage 0.09 mg/kg) was found to be 3.53 ± 3.84 ng/mL; in data set [2] (in vivo, 0.09 mg/kg, Route PO, Dose (mg · kg) 0.09) it was 3.53 ± 3.84 ng/mL. The exposure AUC(0-t) in data set [1] (pig, in vivo, po, 0.09 mg/kg) worked out at 16.8 ± 3.64 ng·h/mL. For the same compound, the “Ratio Tissue(mean) (ng/g)/Trough(12 hr)(ng/mL)” value is listed as 0 in data set [1] (pig, in vivo, po, 0.09 mg/kg) and 0 in data set [1] (swine, in vivo, po, 0.09 mg/kg). Further, the concentration at 12 h in data set [2] (in vivo, po, Trough (12 hr)) is 9.57 ± 0.291 ng/mL; in data set [2] (whole blood, other: oral and intra-cecal (all groups), all groups (FIGS. 87-89 and Table 29), read-out: blood trough concentrations), below 10 ng/mL.
In the case of `C[C@@H]1CCN(C(=O)CC#N)C[C@@H]1N(C)c1ncnc2[nH]ccc12` [tofacitinib citrate], in data set [3], the “IL-6 expression in plasma” value is given as “inhibition of IL-6 expression was observed”.
